# Like-named read-outs stand apart in the source and are kept apart here.
# What was measured:
# [1] = molecular target: CDK2/cyclin E (Homo sapiens, UniProt P24941); experiment: Kinase assay CDK2/cyclin E; format: biochemical; details: Ki calculated (Cheng-Prusoff) from experimentally determined IC50 and Km,ATP; read-out: Kinase Inhibition Ki CDK2 - cyclin E
# How it was run: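 Radiometric assays measured transfer of radioactive phosphate from ATP onto polypeptide substrates, using 2-4 μg recombinant active enzyme in buffer typically containing 25 mM β-glycerophosphate, 20 mM MOPS, 5 mM EGTA, 1 mM DTT and 1 mM Na3VO3 at pH 7.4. Reactions were stopped on ice, filtered on P81 or GF/C plates and washed with orthophosphoric acid. Incorporated radioactivity was scintillation-counted.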
# [2] = tested on: PEPCK gene expression; experiment: PEPCK gene expression assay - qPCR in HEPG2 cells; format: cell-based; details: Homo sapiens, HepG2, HEPG2, read-out: PEPCK gene expression, % of maximum stimulation
# Method: PEPCK gene expression was studied in HEPG2 (hepatocarcinoma) cells, seeded in 6-well plate at […] per well. The cells were serum-starved for 20 hours before treatment with dexamethasone/cAMP (stimulator of PEPCK gene expression) in the presence or absence of insulin or GSK3 inhibitor example compounds. After 3 hours treatment the cells were harvested, lysed and RNA extracted using mini RNeasy spin columns (Quiagen). The primer set COD2063/COD2064 (350 bp) was used for the PEPCK gene. The one step RT-PCR was carried out using the Lightcycler-RNA Master SYBR Green 1 Kit. The qPCR analysis calculates the number of the PCR cycles required for the PCR product amplification to reach logarithmic phase. QPCR for a housekeeping gene—28S—was used for normalisation. PEPCK is a key enzyme in gluconeogenesis in the liver and it is known to be negatively regulated by insulin via inhibition of GSK3. The effect of example compounds on PEPCK gene expression was studied in HEPG2 cells treated with dexamethasone/cAMP (a positive regulator PEPCK gene expression) in the presence or absence of insulin or GSK3 inhibitors. Example compound inhibitors of GSK3 were efficient in the abolishment of dexamethasone/cAMP induced stimulation of PEPCK gene expression in HEPG2 cells.
Structure (SMILES),Ki [1],Emax ([2]; 0.1 μM + Dex/cAMP),Emax ([2]; 1 μM + Dex/cAMP),Emax ([2]; 10 μM + Dex/cAMP)
"CCNS(=O)(=O)c1cccc(Nc2nccc(-c3sc(=O)n(C)c3C)n2)c1 [Compound 62, 3-[4-(3,4-Dimethyl-2-oxo-2,3-dihydro-thiazol-5-yl)-pyrimidin-2-ylamino]-N-ethyl-benzenesulfonamide]",0.35 µM,,,
"CC(=O)Nc1cc(Nc2nccc(-c3sc(=O)n(C)c3C)n2)cc(C(F)(F)F)c1 [Compound 64, N-{3-[4-(3,4-Dimethyl-2-oxo-2,3-dihydro-thiazol-5-yl)-pyrimidin-2-ylamino]-5-trifluoromethyl-phenyl}-acetamide]",,11.4 ± 3.2%,,
"COCCNS(=O)(=O)c1cccc(Nc2nccc(-c3sc(=O)n(C)c3C)n2)c1 [Compound 67, 3-[4-(3,4-Dimethyl-2-oxo-2,3-dihydro-thiazol-5-yl)-pyrimidin-2-ylamino]-N-(2-methoxy-ethyl)-benzenesulfonamide]",,,101 ± 38.2%,17.4 ± 0.97%
"Cc1c(-c2ccnc(Nc3cc(Br)cc(C(F)(F)F)c3)n2)sc(=O)n1C [Compound 68, 5-[2-(3-Bromo-5-trifluoromethyl-phenylamino)-pyrimidin-4-yl]-3,4-dimethyl-3H-thiazol-2-one]",,,,60.7 ± 20%
"Cc1c(-c2ccnc(Nc3cccc(S(=O)(=O)NCCO)c3)n2)sc(=O)n1C [Compound 75, 3-[4-(3,4-Dimethyl-2-oxo-2,3-dihydro-thiazol-5-yl)-pyrimidin-2-ylamino]-N-(2-hydroxy-ethyl)-benzenesulfonamide]",0.38 µM,,37.2 ± 0.37%,17.1 ± 0.68%
"CNc1cc(Nc2nccc(-c3sc(=O)n(C)c3C)n2)cc(C(F)(F)F)c1 [Compound 76, 3,4-Dimethyl-5-[2-(3-methylamino-5-trifluoromethyl-phenylamino)-pyrimidin-4-yl]-3H-thiazol-2-one]",0.089 µM,,,

# Source: US7902361B2, “Pyrimidin-4-yl-3, 4-thione compounds and their use in therapy” (Cyclacel Limited, priority 2003, dated 2011)
